# Marks after values point to notes of the source that are not given here.
# Columns and labels:
# STAM (model) mice = test: NAFLD activity score (NAS) in streptozotocin/high-fat diet NASH model (STAM model); format: in vivo, mouse; conditions: 6 weeks treatment, Compound A 37 mg/kg/day oral gavage, telmisartan positive control
# Source text: In Biological Example 8, pathogen-free 15-day-pregnant C57BL/6 mice were obtained from Charles River Laboratories in Japan Inc. (Kanagawa, Japan). NASH was established in male mice by a single subcutaneous injection of streptozotocin (STZ) (Sigma, USA) after birth and feeding with a high fat diet (HFD; CLEA) Japan, Japan) ad libitum after 4 weeks of age (day 28±2). Mice were randomised into 3 groups of 8 mice at 6 weeks of age the day before the start of treatment: vehicle (saline), Compound A and telmisartan (positive control). Treatment with Compound A at a dose of 37 mg/kg bw per day via oral gavage in conjunction with a high-fat diet was given for 6 weeks before sacrifice. NAFLD activity score (NAS) was calculated according to standardised criteria and fibrosis area was assessed via Sirius Red staining.
# [1] = Body weight, liver weight and food intake in ob/ob AMLN mice; format: in vivo, mouse
# Protocol: (§1) Obese diet-induced B6.V-Lepob/Jrj mice (ob/ob) are consistently fibrosis (liver) prone when cholesterol (2%), 40% fat (containing 18% trans-fatty acids) and 20% fructose are added to a high-caloric diet (i.e., AMLN high-fat diet). ob/ob mice on AMLN diet (termed ‘ob/ob AMLN mice’) develop steatohepatitis and fibrosis within a shorter timeframe ([…]) compared with wild-type C57BL/6 mice (AMLN mice) fed the same diet. ob/ob AMLN mice provide an obese diet-induced model of NASH that also allows the study of effects on glycemic control. Development of NASH in the ob/ob AMLN model is confirmed by biopsy.
# (§2) In Biological Examples 10-12, 15, and 19, studies were performed in male ob/ob mice (5 weeks old) fed an AMLN high-fat diet for 15 weeks, then randomized into 3 groups (n=10 per group) to receive either 112 mg/kg bw per day of Compound A via diet, 30 mg/kg bw per day pioglitazone via diet or no treatment (vehicle) for a further 4 weeks. An oral glucose tolerance test (OGTT) was performed at week 3. Hepatic fibrosis was assessed via measurements of hepatic fibrogenic/fibrolytic gene expression by RNA sequencing at 4 weeks.
# In Biological Examples 10, 13-14, and 16-18, studies were performed in male ob/ob mice (5 weeks old) fed an AMLN high-fat diet for 18 weeks, then randomized into 6 groups (n=10 per group) to receive either Compound A (at 3 different daily doses, 45 mg/kg, 90 mg/kg or 135 mg/kg) via diet, 30 mg/kg bw per day obeticholic acid (OCA) via diet, or no treatment (vehicle) for a further 8 weeks. Assessment of NASH related parameters and fibrosis was made at study end by quantitative immune histochemistry (IHC) measurements.
# CDAA/high-fat fed mice [2] = test: Hepatic hydroxyproline (HYP) content, CDAA/high-fat diet induced NASH mouse model; format: in vivo
# Source text: Mouse models that are deficient in methionine and/choline (MCD and CDAA respectively) are well established for studying the development and treatment of NASH in pre-clinical drug development. As precursors for the synthesis of phosphatidylcholine, a dietary deficiency of methionine/choline leads to an inability to synthesize hepatic lipoproteins for the export of triglyceride that results in severe hepatic steatosis, inflammation and fibrosis.
# Although the widely used methionine-choline deficient (MCD) diet consistently reproduces severe NASH-like hepatic inflammation and fibrosis in mice, it is also associated with severe weight-loss (loss of both skeletal muscle and fat mass). This is associated with an increased risk of death which presents major problems for long-term fibrogenesis experiments.
# (§3) In Biological Examples 1-7, studies were performed in male C56BL/6J mice (9 weeks old). Mice were fed either choline-sufficient (CS) or choline deficient high-fat diets (31% total calories; “CDAA/high-fat”). The NASH inducing diet was instigated 6 weeks prior to the commencement of treatment in order to design the study as a treatment/reversal set-up rather than prophylaxis.
# In Biological Examples 1-5, mice were divided into 6 experimental groups (n=9 per group) and fed either CS or CDAA/high-fat diets. After 6 weeks of either the CS- or CDAA diet, mice were orally administered Compound A or comparison Compound N, both at 2 doses, 0.15 mmol/kg bw/day (low-dose, LD) and 0.3 mmol/kg bw per day (high-dose, HD). The test substances were administered orally as admix to the high-fat diet. Hepatic fibrosis was assessed by both measurement of hydroxyproline (HYP) content and Sirius Red (SR) morphometry. Fibrosis, inflammation and metabolism related transcripts levels were measured by quantitative real-time polymerase chain reaction (qPCR).
# CDAA/high-fat fed mice [3] = test: Hepatic fibrosis by Sirius Red (SR) morphometry, CDAA/high-fat diet mouse model; format: in vivo
# Protocol: as §3
# In Biological Examples 1-5, mice were divided into 6 experimental groups (n=9 per group) and fed either CS or CDAA/high-fat diets. […] Hepatic fibrosis was assessed by both measurement of hydroxyproline (HYP) content and Sirius Red (SR) morphometry. Fibrosis, inflammation and metabolism related transcripts levels were measured by quantitative real-time polymerase chain reaction (qPCR).
# In order to more accurately quantify the amount location and functional relevance of the hepatic fibrosis, Sirius Red (SR) morphometry was performed. In contrast to examples 1 and 2 where biochemical assessment of hydroxyproline (HYP) content measuring collagen in the large vessels was used, SR morphometry quantifies the more functionally relevant sinusoidal collagen deposits. 10 areas per slide were measured using 100× magnification.
# ob/ob AMLN mice = test: Oral glucose tolerance test (OGTT) and glycemic control in ob/ob AMLN mice; format: in vivo, mouse; conditions: after 3 weeks, Compound A 112 mg/kg, pioglitazone 30 mg/kg
# Protocol: as §1, §2
# After 3 weeks of administration of Compound A (112 mg/kg), pioglitazone, or vehicle control, an oral glucose tolerance test (OGTT) was performed in ob/ob AMLN mice.
# MMP-13 mRNA = test: Hepatic MMP-13 mRNA expression by qPCR, CDAA/high-fat diet mouse model; format: in vivo; conditions: CDAA/high-fat fed mice; Compound A 0.3 mmol/kg bw/day oral; GLP-1a 0.4 mg/kg once weekly i.p.
# Protocol: Mice were fed either choline-sufficient (CS) or choline deficient high-fat diets (31% total calories; “CDAA/high-fat”). The NASH inducing diet was instigated 6 weeks prior to the commencement of treatment in order to design the study as a treatment/reversal set-up rather than prophylaxis.
# Studies were performed in male C56BL/6J mice (9 weeks old). Mice were divided into 6 experimental groups (n=9 per group) containing either CS or CDAA/high-fat diets, as described above. The NASH inducing CDAA/high fat diet was instigated 6 weeks prior to the commencement of treatment in order to assess treatment/reversal rather than prophylaxis. […] Compound A was administered orally as admix to the high-fat diet whilst GLP-1 agonist was delivered via intraperitoneal injection (i.p.). Fibrosis, inflammation and metabolism related transcripts levels were measured by quantitative real-time polymerase chain reaction (qPCR) in isolated liver tissue.
# [4] = 8 weeks, Compound A 45, 90 and 135 mg/kg, OCA 30 mg/kg bw per day
smiles,measurement,setting,value
"CC/C=C\C/C=C\C/C=C\C/C=C\C/C=C\CCCCOC(CC)C(=O)O (stereo not shown) [Compound A, 2-((5Z,8Z,11Z,14Z,17Z)-icosa-5,8,11,14,17-pentaenyloxy)butanoic acid]",Hepatocellular ballooning,STAM (model) mice,1
same,Lobular inflammation,STAM (model) mice,0.88
same,NAS score (mean ± SD),STAM (model) mice,2.3 ± 1.5
same,Steatosis,STAM (model) mice,0.12
same,body weight,"[1]; 4 weeks, Compound A 112 mg/kg",no effect
same,body weight,[1]; [4],"neither Compound A (45 mg/kg, 90 mg/kg, and 135 mg/kg) nor OCA significantly affected body weight"
same,food intake,[1]; [4],not affected
same,Hydroxyproline (μg) content per 100 mg liver,CDAA/high-fat fed mice [2]; HD 0.3 mmol/kg bw per day orally as admix to diet,37 μg HYP/per 100 mg liver
same,Hydroxyproline (μg) content per 100 mg liver,CDAA/high-fat fed mice [2]; LD 0.15 mmol/kg bw/day orally as admix to diet,38 μg HYP/per 100 mg liver
same,Hydroxyproline (μg) content per liver,CDAA/high-fat fed mice [2]; high dose (HD) 0.3 mmol/kg bw per day orally as admix to diet,750** μg
same,Hydroxyproline (μg) content per liver,CDAA/high-fat fed mice [2]; low dose (LD) 0.15 mmol/kg bw/day orally as admix to diet,800* μg
same,Fibrosis area (mean %),CDAA/high-fat fed mice [3]; HD 0.3 mmol/kg bw per day,1.56* %
same,Fibrosis area (mean %),CDAA/high-fat fed mice [3]; LD 0.15 mmol/kg bw/day,0.76*** %
same,fasting plasma glucose levels,ob/ob AMLN mice,significant reductions
same,"glucose excursion after glucose load (AUC 0-240 mins), OGTT",ob/ob AMLN mice,significantly reduced
same,MMP-13 (relative mRNA expression),MMP-13 mRNA,1.6***

# Source: patent US12440466B2, “Fatty acid derivatives for treating non-alcoholic steatohepatitis” (BASF AS, priority 2017, dated 2025)
